Data reported in patent US20220009920A1 (GB005, Inc., priority 2020, published 2022).

Legend:
Assay in all cases: Large panel kinase profiling
Format in all cases: biochemical
Conditions in all cases: 1 μM test article, 1 mM ATP
AKT1 = AKT1 (Homo sapiens, UniProt P31749)
How it was run: (§1)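 One compound concentration (1 μM) was screened against each kinase at 1 mM ATP using PhosphoSens CSox-Sensor detection, at 30° C., with fluorescence read every 1 min (Ex 360 nm/Em 485 nm).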

BRSK1 = molecular target: T1, BRSK1 (Homo sapiens, UniProt Q8TDC3)
T1 sequence (Q8TDC3 1-778): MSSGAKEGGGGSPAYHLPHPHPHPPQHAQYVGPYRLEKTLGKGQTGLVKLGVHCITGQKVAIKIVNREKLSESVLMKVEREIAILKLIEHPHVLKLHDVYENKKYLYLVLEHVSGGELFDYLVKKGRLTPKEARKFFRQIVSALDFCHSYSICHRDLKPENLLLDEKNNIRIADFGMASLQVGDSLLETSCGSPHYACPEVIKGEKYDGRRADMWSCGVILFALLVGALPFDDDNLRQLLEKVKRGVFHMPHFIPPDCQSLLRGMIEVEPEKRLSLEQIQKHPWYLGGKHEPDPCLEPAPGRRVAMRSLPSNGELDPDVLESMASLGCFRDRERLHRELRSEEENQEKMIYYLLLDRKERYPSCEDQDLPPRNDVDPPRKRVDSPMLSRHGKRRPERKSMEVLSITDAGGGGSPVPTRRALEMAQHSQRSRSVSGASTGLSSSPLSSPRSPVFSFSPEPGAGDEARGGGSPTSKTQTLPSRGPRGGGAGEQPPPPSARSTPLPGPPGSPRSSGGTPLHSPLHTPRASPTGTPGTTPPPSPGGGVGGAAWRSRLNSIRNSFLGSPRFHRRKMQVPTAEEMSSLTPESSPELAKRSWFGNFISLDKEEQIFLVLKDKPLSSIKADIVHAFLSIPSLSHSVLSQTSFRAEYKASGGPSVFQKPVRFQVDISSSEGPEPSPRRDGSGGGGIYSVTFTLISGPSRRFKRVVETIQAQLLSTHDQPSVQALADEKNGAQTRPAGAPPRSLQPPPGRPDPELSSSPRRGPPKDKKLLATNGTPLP
How it was run: as §1

CDK1/E1 = molecular target: T2, CDK1/E1 (Homo sapiens, UniProt P06493)
T2 construct: AssayQuant Technologies, Inc. (ran the panel)
T2 sequence (P06493 whole entry, species assumed): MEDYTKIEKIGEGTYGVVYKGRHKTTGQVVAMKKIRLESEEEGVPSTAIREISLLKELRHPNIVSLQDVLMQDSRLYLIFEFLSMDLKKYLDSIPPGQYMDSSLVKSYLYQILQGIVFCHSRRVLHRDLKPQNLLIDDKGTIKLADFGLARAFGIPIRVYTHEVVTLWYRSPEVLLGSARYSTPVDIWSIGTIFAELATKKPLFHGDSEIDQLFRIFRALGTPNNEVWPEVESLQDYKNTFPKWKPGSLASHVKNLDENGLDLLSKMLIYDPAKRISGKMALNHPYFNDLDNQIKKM
T2 sequence (P24864 whole entry partner, species assumed): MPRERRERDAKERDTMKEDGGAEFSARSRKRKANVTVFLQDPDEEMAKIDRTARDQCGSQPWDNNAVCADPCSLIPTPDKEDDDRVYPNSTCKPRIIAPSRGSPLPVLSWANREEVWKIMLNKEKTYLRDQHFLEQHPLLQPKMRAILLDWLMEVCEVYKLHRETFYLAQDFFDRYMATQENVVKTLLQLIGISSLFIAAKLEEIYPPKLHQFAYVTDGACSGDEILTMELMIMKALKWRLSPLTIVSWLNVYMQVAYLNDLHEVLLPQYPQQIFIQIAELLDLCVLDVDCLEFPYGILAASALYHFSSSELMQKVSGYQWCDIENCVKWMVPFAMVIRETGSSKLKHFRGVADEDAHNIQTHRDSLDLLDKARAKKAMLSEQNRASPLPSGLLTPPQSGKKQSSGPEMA
How it was run: as §1

EPHB3 = molecular target: T3, EPHB3 (Homo sapiens, UniProt P54753)
T3 sequence (P54753 34-998): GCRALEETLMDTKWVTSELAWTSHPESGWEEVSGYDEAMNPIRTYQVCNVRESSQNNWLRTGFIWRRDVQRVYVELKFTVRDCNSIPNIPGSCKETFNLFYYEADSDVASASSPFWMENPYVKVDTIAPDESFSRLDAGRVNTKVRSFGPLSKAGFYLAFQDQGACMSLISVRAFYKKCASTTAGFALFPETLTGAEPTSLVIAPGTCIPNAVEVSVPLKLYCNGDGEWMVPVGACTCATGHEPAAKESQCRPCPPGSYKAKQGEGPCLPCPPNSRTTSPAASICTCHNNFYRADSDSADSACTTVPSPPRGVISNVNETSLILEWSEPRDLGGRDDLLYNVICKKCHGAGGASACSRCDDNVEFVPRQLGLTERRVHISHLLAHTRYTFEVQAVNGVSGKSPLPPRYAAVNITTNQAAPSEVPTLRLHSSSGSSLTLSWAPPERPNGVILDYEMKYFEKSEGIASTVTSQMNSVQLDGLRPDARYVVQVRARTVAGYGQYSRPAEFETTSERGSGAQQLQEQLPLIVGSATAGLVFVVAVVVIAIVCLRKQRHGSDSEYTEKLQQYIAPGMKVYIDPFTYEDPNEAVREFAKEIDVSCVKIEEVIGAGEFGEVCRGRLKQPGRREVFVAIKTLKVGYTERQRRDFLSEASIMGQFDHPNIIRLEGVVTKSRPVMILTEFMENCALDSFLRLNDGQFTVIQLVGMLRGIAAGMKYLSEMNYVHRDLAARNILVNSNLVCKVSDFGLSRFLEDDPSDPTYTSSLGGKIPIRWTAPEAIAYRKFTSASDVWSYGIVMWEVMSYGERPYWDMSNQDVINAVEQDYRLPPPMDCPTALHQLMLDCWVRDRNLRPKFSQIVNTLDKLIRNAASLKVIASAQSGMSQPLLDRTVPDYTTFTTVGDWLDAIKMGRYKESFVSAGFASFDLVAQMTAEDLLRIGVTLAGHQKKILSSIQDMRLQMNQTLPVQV
How it was run: as §1

JAK1(JH1JH2) = molecular target: T4, JAK1(JH1JH2) (Homo sapiens, UniProt P23458)
T4 construct: JAK1(JH1JH2)
T4 sequence (P23458 561-1154 limits assumed, species assumed): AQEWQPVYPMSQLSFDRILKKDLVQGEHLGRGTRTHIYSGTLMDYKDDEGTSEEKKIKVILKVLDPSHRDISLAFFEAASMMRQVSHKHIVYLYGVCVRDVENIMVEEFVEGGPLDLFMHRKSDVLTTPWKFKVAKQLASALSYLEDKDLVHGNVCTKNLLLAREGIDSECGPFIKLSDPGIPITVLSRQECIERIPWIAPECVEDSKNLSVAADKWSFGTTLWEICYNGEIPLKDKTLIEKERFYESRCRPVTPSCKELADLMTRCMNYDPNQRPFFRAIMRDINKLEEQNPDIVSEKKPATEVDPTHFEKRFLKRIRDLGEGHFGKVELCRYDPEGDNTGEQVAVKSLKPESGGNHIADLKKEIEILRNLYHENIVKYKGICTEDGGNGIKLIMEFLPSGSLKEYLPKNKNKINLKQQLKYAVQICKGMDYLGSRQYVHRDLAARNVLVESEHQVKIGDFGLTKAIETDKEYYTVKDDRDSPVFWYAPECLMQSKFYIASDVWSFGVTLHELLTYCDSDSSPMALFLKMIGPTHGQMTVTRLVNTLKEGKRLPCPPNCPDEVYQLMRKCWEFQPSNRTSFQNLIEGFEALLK
How it was run: as §1

MYLK/MLCK = molecular target: T5, MYLK/MLCK (Homo sapiens, UniProt Q15746)
T5 construct: AssayQuant Technologies, Inc. (assay service)
How it was run: as §1

STK10/LOK = molecular target: T6, STK10/LOK (Homo sapiens, UniProt O94804)
T6 construct: AssayQuant Technologies, Inc. (contract assay)
T6 sequence (O94804 whole entry): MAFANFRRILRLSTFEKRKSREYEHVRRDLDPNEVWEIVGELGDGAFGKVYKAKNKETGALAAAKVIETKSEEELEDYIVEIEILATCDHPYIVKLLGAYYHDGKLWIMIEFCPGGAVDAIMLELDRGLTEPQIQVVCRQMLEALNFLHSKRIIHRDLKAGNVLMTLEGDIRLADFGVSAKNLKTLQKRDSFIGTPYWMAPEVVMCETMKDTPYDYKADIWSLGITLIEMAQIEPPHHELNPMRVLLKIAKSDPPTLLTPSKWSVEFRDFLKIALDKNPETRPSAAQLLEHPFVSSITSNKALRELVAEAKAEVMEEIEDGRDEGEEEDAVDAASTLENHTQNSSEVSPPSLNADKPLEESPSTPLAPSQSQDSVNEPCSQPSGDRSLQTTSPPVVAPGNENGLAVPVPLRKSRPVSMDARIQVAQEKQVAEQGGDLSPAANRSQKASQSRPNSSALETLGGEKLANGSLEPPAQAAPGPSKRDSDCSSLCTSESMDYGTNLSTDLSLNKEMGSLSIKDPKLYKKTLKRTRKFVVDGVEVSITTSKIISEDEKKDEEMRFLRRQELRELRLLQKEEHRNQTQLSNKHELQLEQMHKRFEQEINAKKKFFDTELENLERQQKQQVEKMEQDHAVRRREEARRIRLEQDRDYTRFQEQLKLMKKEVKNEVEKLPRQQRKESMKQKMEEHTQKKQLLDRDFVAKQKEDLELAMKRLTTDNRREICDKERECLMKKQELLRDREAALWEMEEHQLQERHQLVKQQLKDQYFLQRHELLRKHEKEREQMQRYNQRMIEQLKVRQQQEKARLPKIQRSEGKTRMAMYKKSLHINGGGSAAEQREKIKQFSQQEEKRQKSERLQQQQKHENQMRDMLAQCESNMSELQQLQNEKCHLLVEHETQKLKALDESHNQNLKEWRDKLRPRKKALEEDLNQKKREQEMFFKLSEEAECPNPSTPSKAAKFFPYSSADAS
How it was run: as §1

TNK2/ACK = molecular target: T7, TNK2/ACK (Homo sapiens, UniProt Q07912)
T7 construct: AssayQuant Technologies, Inc. (contract laboratory that ran the panel)
T7 sequence (Q07912 whole entry): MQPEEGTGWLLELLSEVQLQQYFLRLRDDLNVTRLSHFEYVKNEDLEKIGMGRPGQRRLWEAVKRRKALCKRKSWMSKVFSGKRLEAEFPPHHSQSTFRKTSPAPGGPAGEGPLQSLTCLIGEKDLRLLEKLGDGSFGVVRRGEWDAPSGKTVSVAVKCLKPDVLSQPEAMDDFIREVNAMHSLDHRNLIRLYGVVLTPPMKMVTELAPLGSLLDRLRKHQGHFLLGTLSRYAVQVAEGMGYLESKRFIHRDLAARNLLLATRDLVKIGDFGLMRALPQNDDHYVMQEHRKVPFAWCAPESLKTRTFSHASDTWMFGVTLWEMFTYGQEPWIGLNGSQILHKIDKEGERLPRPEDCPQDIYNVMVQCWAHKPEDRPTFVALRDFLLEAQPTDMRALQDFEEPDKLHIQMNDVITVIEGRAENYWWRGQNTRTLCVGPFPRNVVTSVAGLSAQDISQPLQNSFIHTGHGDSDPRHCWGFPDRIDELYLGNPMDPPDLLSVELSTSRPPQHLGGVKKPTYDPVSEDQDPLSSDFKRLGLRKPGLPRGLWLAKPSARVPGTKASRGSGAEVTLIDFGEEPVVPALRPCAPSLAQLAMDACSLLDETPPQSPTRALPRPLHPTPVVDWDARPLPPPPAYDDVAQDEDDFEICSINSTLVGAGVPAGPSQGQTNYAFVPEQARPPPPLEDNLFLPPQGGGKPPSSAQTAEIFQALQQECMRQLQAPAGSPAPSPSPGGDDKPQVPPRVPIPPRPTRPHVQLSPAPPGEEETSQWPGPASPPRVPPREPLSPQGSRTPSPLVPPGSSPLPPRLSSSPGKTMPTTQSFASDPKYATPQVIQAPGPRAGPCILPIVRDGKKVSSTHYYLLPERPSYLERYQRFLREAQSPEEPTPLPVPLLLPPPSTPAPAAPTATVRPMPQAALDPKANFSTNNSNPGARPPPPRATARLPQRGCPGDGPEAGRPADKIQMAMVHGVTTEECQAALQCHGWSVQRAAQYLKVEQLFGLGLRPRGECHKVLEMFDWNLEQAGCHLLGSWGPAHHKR
How it was run: as §1

Chain of AKT1 (P31749 whole entry): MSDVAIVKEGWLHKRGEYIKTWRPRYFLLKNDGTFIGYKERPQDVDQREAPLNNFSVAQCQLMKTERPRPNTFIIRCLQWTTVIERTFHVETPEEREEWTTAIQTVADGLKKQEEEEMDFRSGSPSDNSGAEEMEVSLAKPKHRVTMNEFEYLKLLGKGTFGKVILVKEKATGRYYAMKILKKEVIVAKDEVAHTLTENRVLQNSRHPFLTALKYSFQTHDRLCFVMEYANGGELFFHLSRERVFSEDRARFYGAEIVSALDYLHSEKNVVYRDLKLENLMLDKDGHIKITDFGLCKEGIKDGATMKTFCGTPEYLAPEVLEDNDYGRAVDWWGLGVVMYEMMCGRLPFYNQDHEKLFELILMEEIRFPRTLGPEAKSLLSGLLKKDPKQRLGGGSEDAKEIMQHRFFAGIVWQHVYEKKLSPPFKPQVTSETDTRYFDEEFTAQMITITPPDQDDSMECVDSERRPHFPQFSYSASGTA

Structure (SMILES) | inhibition at 1 µM (AKT1) | inhibition at 1 µM (BRSK1) | inhibition at 1 µM (CDK1/E1) | inhibition at 1 µM (EPHB3) | inhibition at 1 µM (JAK1(JH1JH2)) | inhibition at 1 µM (MYLK/MLCK) | inhibition at 1 µM (STK10/LOK) | inhibition at 1 µM (TNK2/ACK)
C=CC(=O)N1CCCC(c2c(F)cc(C(N)=O)c3[nH]c4c(c23)CCCCC4)C1 (single isomer, unassigned) [Compound 5-6] | 20% | -30.9% | -3.6% | 17.6% | 8.5% | 19.7% | 3.1% | -8.3%
C=CC(=O)N1CCC[C@@H](c2c(F)cc(C(N)=O)c3[nH]c4c(c23)CC2(CC4)CC2)C1 [Compound 6-2, (S)-5-(1-acryloylpiperidin-3-yl)-6-fluoro-1,2,4,9-tetrahydrospiro[carbazole-3,1′-cyclopropane]-8-carboxamide] | -17% | -13% | -7% | -24.4% | 29.4% | -24% | 12.2% | 13.4%
C=CC(=O)N1CCC[C@@H](c2c(F)cc(C(N)=O)c3[nH]c4c(c23)CCC4)C1 [Compound 10-2, (S)-8-(1-acryloylpiperidin-3-yl)-7-fluoro-1,2,3,4-tetrahydrocyclo-penta[b]indole-5-carboxamide] | -14.8% | 10.1% | -10.6% | -10.1% | 14.8% | -27.4% | -8.7% | 2%
